Laboratory results reported in PMC6390583 (BMC rheumatology, 2018).
Where two headings read alike, the source gives them in different places.

Key:
MAP4K4 = MAP4K4 (Homo sapiens, UniProt O95819); assay: trFRET binding kinome profiling
Method: (§1) JAK activity assays using isolated kinase domains in the presence of 0.1 mM ATP and trFRET kinome profiling were conducted as described previously (17).

TrkA = TrkA (Homo sapiens, UniProt P04629); assay: trFRET binding kinome profiling
Method: as §1

Rock2 = Rock2 (Homo sapiens, UniProt O75116); assay: trFRET binding kinome profiling
Method: as §1

Pim1 = Pim1 (Homo sapiens, UniProt P11309); assay: trFRET binding kinome profiling
Method: as §1

CDK9/Cyclin K = CDK9/Cyclin K (Homo sapiens, UniProt P50750); assay: trFRET binding kinome profiling
Method: as §1

Flt1 = Flt1 (Homo sapiens, UniProt P17948); assay: trFRET binding kinome profiling
Method: as §1

[1] = system: IL-31 induced STAT3 phosphorylation; assay: IL-31 induced STAT3 phosphorylation in HEKa; format: cell-based; settings: Homo sapiens, JAK 1/2, read-out: Human IC50, IL-31 pSTAT3
Method: (§2) IL-6 and Oncostatin M (OSM) induced STAT3 phosphorylation was assessed in the human erythroleukemia TF-1 cell line. Erythropoietin-induced STAT5 phosphorylation was assessed in the human UT-7 cell line. IL-2 and IL-15 induced STAT5 phosphorylation was assessed in activated human T-cells. Detection of phosphorylated STATs was accomplished with the SureFire pSTAT5 or pSTAT3 Assay kit (Perkin Elmer, Hopkinton, MA) per standard manufacturer’s protocol, with the exception of an overnight incubation following addition of donor beads before detection on the EnVision (Perkin Elmer, Hopkinton, MA). IFNγ induced STAT1 phosphorylation was assessed in the CD14+ monocyte population in human PBMC by flow cytometry. CD14 BV421 was purchased from BD Biosciences (San Jose, CA). STAT1 PE ([…]) was purchased from ThermoFisher Scientific (Waltham, MA). IL-4 and IL-13 induced STAT6 phosphorylation and IL-31 induced STAT3 phosphorylation were assessed in adult human epithelial keratinocytes (HEKa, ThermoFisher Scientific, Waltham, MA) by flow cytometry. STAT6 PE (pY641) and STAT3 PE (Y705) were purchased from BD Biosciences (San Jose, CA).

[2] = system: Oncostatin M (OSM) induced STAT3 phosphorylation; assay: Oncostatin M induced STAT3 phosphorylation in TF-1 cells; format: cell-based; settings: Homo sapiens, JAK 1, N = 2, read-out: Human IC50, OSM pSTAT3
Method: as §2

[3] = system: IL-2 induced STAT5 phosphorylation; assay: IL-2 induced STAT5 phosphorylation in activated T-cells; format: cell-based; settings: T-blasts, JAK 1/3, read-out: Human IC50, IL-2 pSTAT5
Method: as §2

[4] = system: IL-4 induced STAT6 phosphorylation; assay: IL-4 induced STAT6 phosphorylation in HEKa; format: cell-based; settings: Homo sapiens, JAK 1/3, read-out: Human IC50, IL-4 pSTAT6
Method: as §2

IL-7 driven pSTAT5 = assay: Clinical ex vivo IL-7 stimulation of whole blood, pSTAT5; format: in vivo; settings: healthy volunteers, 12 mg of upadacitinib, 1 h post dose
Method: Recombinant human IL-6 (400 ng/ml), or IL-7 (400 ng/ml), (R&D Systems, Minneapolis, MN) was added to blood and incubated for 10 min at 37°C. Surface antibodies were added (CD14-APC, CD3-fluorescein isothiocyanate [FITC]; BD Biosciences, San Jose, CA) and incubated on ice for an additional 20 min. Samples were lysed (Lyse/Fix, BD Biosciences, San Jose, CA) and incubated for 10 min at 37°C. Samples were washed and stored at − 70°C. For intracellular staining, samples were thawed, washed, and resuspended in BD Perm buffer III (BD Biosciences, San Jose, CA) on ice for 30 min. Samples were washed and stained with pSTAT5-PE or pSTAT3-PE (BD Biosciences, San Jose, CA) for 60 min at room temperature and then analyzed immediately on a FACSCalibur. Geometric means were determined using FlowJo analysis software.

[5] = system: IL-6 induced STAT3 phosphorylation; assay: IL-6 induced STAT3 phosphorylation in TF-1 cells; format: cell-based; settings: Homo sapiens, JAK 1, read-out: Human IC50, IL-6 pSTAT3
Method: as §2

[6] = system: IL-15 induced STAT5 phosphorylation; assay: IL-15 induced STAT5 phosphorylation in activated T-cells; format: cell-based; settings: Homo sapiens, T-cell; T-blasts, JAK 1/3; read-out: Human IC50, IL-15 pSTAT5
Method: as §2

JAK1 = JAK1 (Homo sapiens, UniProt P23458); assay: HTRF activity assay, recombinant JAK1 catalytic domain; settings: JAK1 IC50 at varying ATP (0.01-1 mM), Cheng-Prusoff; data not shown
reticulocyte deployment = assay: Epo induced reticulocyte deployment assay; format: in vivo; settings: rat, Epo challenge, highest concentration tested
Method: Naïve male Lewis rats were injected intravenously with either PBS or 1000 IU of epoetin α (Procrit®, Janssen Products, LP, Horsham, PA) for two consecutive days. Reticulocytes were measured on day 4 by flow cytometry using thiozole orange as a dye as previously described.

[7] = system: IL-13 induced STAT6 phosphorylation; assay: IL-13 induced STAT6 phosphorylation in HEKa; format: cell-based; settings: Homo sapiens, JAK 1/TYK2, read-out: Human IC50, IL-13 pSTAT6
Method: as §2

[8] = system: adjuvant induced arthritis; assay: Rat adjuvant-induced arthritis (AIA) model; format: in vivo

Chain of Pim1 (P11309 whole entry, species assumed): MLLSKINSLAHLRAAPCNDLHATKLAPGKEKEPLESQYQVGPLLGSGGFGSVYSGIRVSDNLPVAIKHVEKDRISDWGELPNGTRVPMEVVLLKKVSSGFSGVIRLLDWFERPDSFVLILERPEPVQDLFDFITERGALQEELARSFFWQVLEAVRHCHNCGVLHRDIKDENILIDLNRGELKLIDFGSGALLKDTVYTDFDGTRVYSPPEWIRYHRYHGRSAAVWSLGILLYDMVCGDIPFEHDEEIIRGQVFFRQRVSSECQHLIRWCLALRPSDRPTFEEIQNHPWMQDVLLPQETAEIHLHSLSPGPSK
Chain of Rock2 (O75116 whole entry, species assumed): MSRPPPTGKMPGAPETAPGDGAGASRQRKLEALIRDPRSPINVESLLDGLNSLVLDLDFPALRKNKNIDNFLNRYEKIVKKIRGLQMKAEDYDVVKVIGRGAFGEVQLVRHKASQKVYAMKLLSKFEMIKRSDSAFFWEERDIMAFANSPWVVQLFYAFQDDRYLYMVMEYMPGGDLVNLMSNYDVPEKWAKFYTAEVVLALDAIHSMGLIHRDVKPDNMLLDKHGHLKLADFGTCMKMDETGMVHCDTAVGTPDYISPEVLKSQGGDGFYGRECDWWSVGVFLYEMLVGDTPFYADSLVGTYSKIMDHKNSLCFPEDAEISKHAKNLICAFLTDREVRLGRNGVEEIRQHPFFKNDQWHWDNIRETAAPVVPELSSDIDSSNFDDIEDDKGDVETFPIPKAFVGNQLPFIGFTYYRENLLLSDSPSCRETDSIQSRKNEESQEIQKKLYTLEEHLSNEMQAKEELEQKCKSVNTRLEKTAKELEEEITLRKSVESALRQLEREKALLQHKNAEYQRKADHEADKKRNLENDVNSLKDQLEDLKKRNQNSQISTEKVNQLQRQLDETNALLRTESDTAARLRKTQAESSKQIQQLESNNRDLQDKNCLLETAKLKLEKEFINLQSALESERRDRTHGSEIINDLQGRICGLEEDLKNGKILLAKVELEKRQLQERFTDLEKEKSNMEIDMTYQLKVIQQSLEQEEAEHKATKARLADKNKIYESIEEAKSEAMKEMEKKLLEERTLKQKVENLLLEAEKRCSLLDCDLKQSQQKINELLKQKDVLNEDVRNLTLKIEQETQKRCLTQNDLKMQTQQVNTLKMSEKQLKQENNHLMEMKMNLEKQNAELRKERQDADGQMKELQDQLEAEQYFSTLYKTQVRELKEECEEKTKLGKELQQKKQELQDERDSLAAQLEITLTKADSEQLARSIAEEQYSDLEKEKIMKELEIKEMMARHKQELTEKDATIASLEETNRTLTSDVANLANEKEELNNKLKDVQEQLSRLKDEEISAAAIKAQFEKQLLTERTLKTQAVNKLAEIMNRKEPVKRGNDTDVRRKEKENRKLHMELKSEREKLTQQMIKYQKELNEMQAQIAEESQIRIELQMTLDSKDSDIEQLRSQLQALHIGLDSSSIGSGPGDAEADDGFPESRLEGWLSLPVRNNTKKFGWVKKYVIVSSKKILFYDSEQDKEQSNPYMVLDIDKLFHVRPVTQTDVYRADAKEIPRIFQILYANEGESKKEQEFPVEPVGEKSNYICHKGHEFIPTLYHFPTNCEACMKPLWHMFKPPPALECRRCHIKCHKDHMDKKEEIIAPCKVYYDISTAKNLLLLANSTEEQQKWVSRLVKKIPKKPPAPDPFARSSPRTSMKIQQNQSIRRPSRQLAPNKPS
Chain of JAK1 (P23458 845-1142): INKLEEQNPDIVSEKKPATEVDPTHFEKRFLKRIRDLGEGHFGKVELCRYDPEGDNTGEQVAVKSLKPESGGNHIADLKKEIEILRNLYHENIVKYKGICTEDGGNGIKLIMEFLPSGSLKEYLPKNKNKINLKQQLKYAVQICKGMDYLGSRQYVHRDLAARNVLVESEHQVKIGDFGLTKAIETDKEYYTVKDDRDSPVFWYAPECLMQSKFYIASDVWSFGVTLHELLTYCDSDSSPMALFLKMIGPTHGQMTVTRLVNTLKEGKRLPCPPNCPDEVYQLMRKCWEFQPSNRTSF
Chain of MAP4K4 (O95819 whole entry, species assumed, the tested form may be a part): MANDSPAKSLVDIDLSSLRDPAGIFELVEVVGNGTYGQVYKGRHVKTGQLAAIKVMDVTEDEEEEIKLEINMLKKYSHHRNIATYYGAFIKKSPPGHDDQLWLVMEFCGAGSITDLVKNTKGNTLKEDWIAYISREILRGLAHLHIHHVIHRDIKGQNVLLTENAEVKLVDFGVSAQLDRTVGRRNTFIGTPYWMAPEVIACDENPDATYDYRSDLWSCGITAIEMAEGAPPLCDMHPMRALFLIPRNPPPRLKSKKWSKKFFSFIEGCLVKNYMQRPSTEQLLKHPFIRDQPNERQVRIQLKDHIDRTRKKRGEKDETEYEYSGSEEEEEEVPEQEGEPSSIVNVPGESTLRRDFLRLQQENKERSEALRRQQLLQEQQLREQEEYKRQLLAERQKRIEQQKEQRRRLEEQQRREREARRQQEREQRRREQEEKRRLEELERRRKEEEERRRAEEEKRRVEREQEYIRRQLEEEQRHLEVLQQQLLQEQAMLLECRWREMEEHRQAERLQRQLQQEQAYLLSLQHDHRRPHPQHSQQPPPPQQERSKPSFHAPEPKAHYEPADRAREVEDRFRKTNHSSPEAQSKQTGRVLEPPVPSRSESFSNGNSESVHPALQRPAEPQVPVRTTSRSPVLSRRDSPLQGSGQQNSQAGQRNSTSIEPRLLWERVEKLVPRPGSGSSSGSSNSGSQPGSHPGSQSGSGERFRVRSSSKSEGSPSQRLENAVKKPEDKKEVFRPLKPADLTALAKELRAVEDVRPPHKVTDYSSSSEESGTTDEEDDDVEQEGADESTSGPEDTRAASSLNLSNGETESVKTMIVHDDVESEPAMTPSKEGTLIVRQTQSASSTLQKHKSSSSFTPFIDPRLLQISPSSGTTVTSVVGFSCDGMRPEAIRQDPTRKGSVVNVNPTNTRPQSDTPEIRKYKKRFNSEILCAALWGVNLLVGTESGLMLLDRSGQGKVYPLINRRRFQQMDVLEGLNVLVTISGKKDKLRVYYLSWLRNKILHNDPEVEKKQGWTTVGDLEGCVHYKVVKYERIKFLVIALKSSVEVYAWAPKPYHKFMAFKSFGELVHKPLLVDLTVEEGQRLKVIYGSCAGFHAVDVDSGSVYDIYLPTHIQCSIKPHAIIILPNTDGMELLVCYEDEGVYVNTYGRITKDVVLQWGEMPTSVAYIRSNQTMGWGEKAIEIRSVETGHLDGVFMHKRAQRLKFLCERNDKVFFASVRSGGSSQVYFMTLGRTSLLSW
Chain of TrkA (P04629 33-796, species assumed): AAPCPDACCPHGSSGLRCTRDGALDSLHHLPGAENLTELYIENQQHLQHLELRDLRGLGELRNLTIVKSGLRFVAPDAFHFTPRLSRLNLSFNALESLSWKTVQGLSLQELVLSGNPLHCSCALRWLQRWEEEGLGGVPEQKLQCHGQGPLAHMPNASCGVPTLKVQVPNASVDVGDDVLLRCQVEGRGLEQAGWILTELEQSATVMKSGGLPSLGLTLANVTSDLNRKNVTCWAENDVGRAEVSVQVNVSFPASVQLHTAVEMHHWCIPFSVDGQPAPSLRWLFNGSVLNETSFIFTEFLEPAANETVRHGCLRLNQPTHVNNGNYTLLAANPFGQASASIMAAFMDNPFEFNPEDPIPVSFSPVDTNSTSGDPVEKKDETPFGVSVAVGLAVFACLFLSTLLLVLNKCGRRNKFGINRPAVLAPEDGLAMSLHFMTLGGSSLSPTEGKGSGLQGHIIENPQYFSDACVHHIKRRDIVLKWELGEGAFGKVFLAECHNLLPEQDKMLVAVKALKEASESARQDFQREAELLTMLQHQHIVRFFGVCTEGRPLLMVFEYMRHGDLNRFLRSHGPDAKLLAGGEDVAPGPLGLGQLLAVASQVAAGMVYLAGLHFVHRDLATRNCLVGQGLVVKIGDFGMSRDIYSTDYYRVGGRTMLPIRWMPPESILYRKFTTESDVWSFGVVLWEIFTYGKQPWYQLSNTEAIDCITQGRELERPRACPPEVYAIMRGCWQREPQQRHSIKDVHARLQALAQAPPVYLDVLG
Chain of CDK9/Cyclin K (P50750 whole entry, species assumed): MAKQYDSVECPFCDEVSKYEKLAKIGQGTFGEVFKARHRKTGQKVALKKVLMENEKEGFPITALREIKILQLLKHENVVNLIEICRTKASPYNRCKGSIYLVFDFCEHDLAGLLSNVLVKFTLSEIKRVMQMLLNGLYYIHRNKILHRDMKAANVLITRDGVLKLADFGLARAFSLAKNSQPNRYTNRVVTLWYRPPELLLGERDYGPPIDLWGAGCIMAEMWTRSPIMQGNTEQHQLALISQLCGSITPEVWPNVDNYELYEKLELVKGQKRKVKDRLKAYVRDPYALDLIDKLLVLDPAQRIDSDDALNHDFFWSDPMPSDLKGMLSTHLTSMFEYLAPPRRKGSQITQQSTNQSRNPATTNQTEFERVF
Chain of CDK9/Cyclin K (O75909 whole entry partner, species assumed): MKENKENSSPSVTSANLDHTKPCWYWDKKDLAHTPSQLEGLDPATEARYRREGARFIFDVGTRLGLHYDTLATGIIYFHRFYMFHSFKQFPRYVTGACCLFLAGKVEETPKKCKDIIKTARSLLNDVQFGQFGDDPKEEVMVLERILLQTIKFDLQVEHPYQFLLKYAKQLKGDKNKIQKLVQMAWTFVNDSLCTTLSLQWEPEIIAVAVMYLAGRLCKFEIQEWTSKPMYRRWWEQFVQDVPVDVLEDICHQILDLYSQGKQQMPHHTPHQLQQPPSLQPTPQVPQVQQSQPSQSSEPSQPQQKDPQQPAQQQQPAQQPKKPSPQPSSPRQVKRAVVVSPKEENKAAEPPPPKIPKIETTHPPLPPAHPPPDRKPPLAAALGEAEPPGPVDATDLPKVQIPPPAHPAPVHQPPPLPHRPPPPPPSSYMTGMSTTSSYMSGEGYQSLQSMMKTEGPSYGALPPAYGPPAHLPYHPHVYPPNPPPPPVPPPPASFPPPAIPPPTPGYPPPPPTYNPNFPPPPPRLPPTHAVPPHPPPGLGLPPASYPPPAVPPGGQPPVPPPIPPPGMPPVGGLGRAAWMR

`CC[C@@H]1CN(C(=O)NCC(F)(F)F)C[C@@H]1c1cnc2cnc3[nH]ccc3n12` [upadacitinib, (3S,4R)-3-ethyl-4-(3H-imidazo [1,2-a]pyrrolo [2,3-e]pyrazin-8-yl)-N-(2,2,2-trifluoroethyl) pyrrolidine-1-carboxamide] showed an IC50 (MAP4K4) greater than 10000 nM, an IC50 (TrkA) greater than 10000 nM and an IC50 (Rock2) of less than 1000 nM. It also gave an IC50 (Pim1) greater than 10000 nM, an IC50 (CDK9/Cyclin K) greater than 10000 nM and an IC50 (Flt1) greater than 10000 nM. For the same compound, the IC50 [1] was 3 nM, the IC50 [2] was 1.6 nM and the IC50 ([3]; Homo sapiens, T-cell) was 13 nM. The IC50 [3] was 10 nM, the IC50 [4] was 2 nM and the “Inhibition of IL-7 driven pSTAT5” value (IL-7 driven pSTAT5) was ~ 70%. The IC50 [5] was 11 nM, the IC50 [6] was 22 nM and the “Mechanism of JAK1 inhibition” value (JAK1) was “ATP competitive inhibitor”. The “Maximal inhibition of reticulocyte deployment” value (reticulocyte deployment) was ~ 40%, the IC50 [7] was 4 nM and the Histological endpoints ([8]; 3 and 10 mg/kg dose groups, data not shown) was “improved synovial hypertrophy, inflammation, cartilage damage and bone erosion”. For the same compound, the “Reduction in paw swelling at clinical AUC exposures” value ([8]; exposures for 6 mg BID and 12 mg BID clinical doses of upadacitinib) was greater than 90%, the “AUC60, AUC0-12 drug concentration necessary to achieve 60% inhibition of paw swelling” value ([8]; oral BID) was 83 ng·h/mL and the “Effect on paw swelling” value ([8]; oral, dosed from day 7) was “dose and exposure dependent reductions in paw swelling”.
